Measurements taken from ChEMBL document CHEMBL1142675, “CH...O and CH...N hydrogen bonds in ligand design: a novel quinazolin-4-ylthiazol-2-ylamine protein kinase inhibitor” (J Med Chem, 2005).

The compounds below were run against Glycogen synthase kinase-3 (Homo sapiens, UniProt P49840+P49841) (assay: Inhibition of Glycogen synthase kinase-3).
Format: protein assay

Ki [µM]	Structure (SMILES)
2.5	Cc1cc(Nc2cc(-c3ccccc3)nc3ccccc23)[nH]n1
0.11	c1ccc(-c2nc(Nc3cc[nH]n3)c3ccccc3n2)cc1
0.25	c1ccc(-c2nc(Nc3nc[nH]n3)c3ccccc3n2)cc1

More lines, now with the values behind:

Structure (SMILES)	Ki [µM]
Cc1cc(Nc2nc(-c3ccccc3)nc3ccccc23)no1	> 2
Cc1n[nH]c(Nc2nc(-c3ccccc3)nc3ccccc23)n1	23
Cc1cnc(Nc2nc(-c3ccccc3)nc3ccccc23)s1	0.15
Cc1cc(Nc2nc(-c3ccccc3)nc3ccccc23)n[nH]1	0.024
